The source of these data is patent publication US20260285816A1, “Piperazinyl-Modified Quinazolinyl-Aryl Urea Derivative, And Preparation Method And Use Thereof” (Guangxi Normal University, priority 2025, published 2026).

Common to all, as to format: cell-based, human
One test deals with J82 cells. In words: CCK-8 anti-proliferative assay, J82. As to conditions: Homo sapiens, J82, co-incubated 48 h, read-out: Anti-proliferative activity (IC50 ± standard deviation) J82. The procedure: (§1) The obtained quinazolinyl-aryl urea derivatives were screened for compounds with optimal activity using the following method.
(§2) Experimental Procedure for Anti-Proliferative Activity Evaluation: The CCK-8 assay was employed. Cells in logarithmic growth phase were harvested, adjusted to appropriate density, and uniformly seeded into 96-well plates using a multichannel pipette (180 μL cell suspension containing complete medium per well, 5,000 cells/well). Blank control wells (containing basal medium, CCK-8 solution, and DMSO only) were set. Cells were incubated at 37° C. under 5% CO2. After 70% confluency was reached, test compounds (target compounds/positive controls) were added at final concentrations of 1, 2, 4, 6, 8, 12, 16, 24, and 30 μM (3 repeated wells per concentration). Compounds were pre-dissolved in DMSO, sterilized, and diluted with medium before adding 20 μL/well. After co-incubation for designated durations, 10 μL CCK-8 solution was added per well followed by 1-4 h incubation (different cells have different incubation times). […] Inhibition rates were calculated as: (ODcontrol−ODtreatment)/ODcontrol×100%. Median inhibitory concentrations (IC50 values) were derived using Origin v8.0 software.

The next test has as its system UM-UC-3 cells. In words: CCK-8 anti-proliferative assay, UM-UC-3. The conditions noted are these: Homo sapiens, UMUC3, co-incubated 48 h, read-out: Anti-proliferative activity (IC50 ± standard deviation) UM-UC-3. The procedure:
as §1, §2
A general note: Tetrazolium assays rely on reduction of a dye to a coloured formazan, in cell work by metabolically active cells.

Another test deals with T24 cells. In words: CCK-8 anti-proliferative assay, T24. As to conditions: Homo sapiens, T-24, co-incubated 48 h, read-out: Anti-proliferative activity (IC50 ± standard deviation) T24. From the text:
(§3) The obtained quinazolinyl-aryl urea derivatives were screened for compounds with optimal activity using the following method. All cell lines employed in this experiment were of human origin, including: bladder cancer cells: J82, UM-UC-3, T24, 5637, pancreatic cancer cells: BxPC-3, PANC-1, osteosarcoma cells: 143B, MG-63, cervical cancer cells: HeLa, breast cancer cells: MCF-7, NSCLC cells: A549, hepatoblastoma cells: Hep G2, and ovarian cancer cells: SK-OV-3, as well as normal cell lines: immortalized ureteral epithelial cells (SV-HUC-1), embryonic lung fibroblasts (WI-38).
(§4) Experimental Procedure for Anti-Proliferative Activity Evaluation: The CCK-8 assay was employed. Cells in logarithmic growth phase were harvested, adjusted to appropriate density, and uniformly seeded into 96-well plates using a multichannel pipette (180 μL cell suspension containing complete medium per well, 5,000 cells/well). Blank control wells (containing basal medium, CCK-8 solution, and DMSO only) were set. Cells were incubated at 37° C. under 5% CO2. After 70% confluency was reached, test compounds (target compounds/positive controls) were added at final concentrations of 1, 2, 4, 6, 8, 12, 16, 24, and 30 μM (3 repeated wells per concentration). Compounds were pre-dissolved in DMSO, sterilized, and diluted with medium before adding 20 μL/well. After co-incubation for designated durations, 10 μL CCK-8 solution was added per well followed by 1-4 h incubation (different cells have different incubation times). The reaction was terminated, and OD (optical density) values at 450 nm were measured using a microplate reader. Inhibition rates were calculated as: (ODcontrol−ODtreatment)/ODcontrol×100%. Median inhibitory concentrations (IC50 values) were derived using Origin v8.0 software.

The test system of another test is 5637 cells. In words: CCK-8 anti-proliferative assay, 5637. As to conditions: Homo sapiens, co-incubated 48 h, read-out: Anti-proliferative activity (IC50 ± standard deviation) 5637. The method, then: as §1, §2
The subject of another test is 143B cells. In words: CCK-8 anti-proliferative assay, 143B. As to conditions: Homo sapiens, 143B, co-incubated 48 h, read-out: Anti-proliferative activity (IC50 ± standard deviation) 143B.
Description: as §3, §4

The next test deals with MG-63 cells. In words: CCK-8 anti-proliferative assay, MG-63. The conditions noted are these: Homo sapiens, MG-63, co-incubated 48 h, read-out: Anti-proliferative activity (IC50 ± standard deviation) MG-63.
Description: as §3, §4

The test system of another test is BxPC-3 cells. In words: CCK-8 anti-proliferative assay, BxPC-3. The conditions noted are these: Homo sapiens, BXPC-3, co-incubated 48 h, read-out: Anti-proliferative activity (IC50 ± standard deviation) BxPC-3.
Description: as §3, §4

Another test has as its system PANC-1 cells. In words: CCK-8 anti-proliferative assay, PANC-1. As to conditions: Homo sapiens, PANC-1, co-incubated 48 h, read-out: Anti-proliferative activity (IC50 ± standard deviation) PANC-1.
Description: as §3, §4

The subject of a further test is HeLa cells. In words: CCK-8 anti-proliferative assay, HeLa. The conditions noted are these: Homo sapiens, HeLa, co-incubated 48 h, read-out: Anti-proliferative activity (IC50 ± standard deviation) HeLa. The method, then: as §1, §2
The next test deals with MCF-7 cells. In words: CCK-8 anti-proliferative assay, MCF-7. As to conditions: Homo sapiens, MCF7, co-incubated 48 h, read-out: Anti-proliferative activity (IC50 ± standard deviation) MCF-7. The procedure:
as §1, §2

Another test has as its system A549 cells. In words: CCK-8 anti-proliferative assay, A549. The conditions noted are these: Homo sapiens, A549, co-incubated 48 h, read-out: Anti-proliferative activity (IC50 ± standard deviation) A549. The procedure:
as §1, §2

For a further test, the system named is Hep G2 cells. In words: CCK-8 anti-proliferative assay, Hep G2. As to conditions: Homo sapiens, HepG2, co-incubated 48 h, read-out: Anti-proliferative activity (IC50 ± standard deviation) Hep G2.
Description: as §3, §4

For another test, the system named is SK-OV-3 cells. In words: CCK-8 anti-proliferative assay, SK-OV-3. The conditions noted are these: co-incubated 48 h, read-out: Anti-proliferative activity (IC50 ± standard deviation) SK-OV-3. The method, then:
as §1, §2

For test [1], the system named is immortalized ureteral epithelial cells (SV-HUC-1). In words: CCK-8 anti-proliferative assay, normal cells SV-HUC-1. The conditions noted are these: read-out: Anti-proliferative activity (IC50 ± standard deviation) SV-HUC-1. The procedure:
as §1, §2

Test [2] relates to embryonic lung fibroblasts (WI-38). In words: CCK-8 anti-proliferative assay, normal cells WI-38. The conditions noted are these: Homo sapiens, read-out: Anti-proliferative activity (IC50 ± standard deviation) WI-38.
Description: as §3, §4

The mark [3] stands for this setting: Homo sapiens, SK-OV-3, Table 12.
Where [4] appears, read: Homo sapiens, SV-HUC1, Table 13, normal cells, co-incubated 48 h.
The mark [5] stands for this setting: WI-38, Table 13, co-incubated 48 h.
Setting [6] is: Table 14, comparative compounds.
Setting [7] is: Table 15, comparative compounds.

What is called IC50 is the point on the concentration scale where inhibition reaches its midpoint.

Like-named read-outs stand apart in the source and are kept apart here.

On to `COc1cc2ncnc(NCc3cccc(NC(=O)Nc4ccc(F)c(C(F)(F)F)c4)c3)c2cc1OCCCCCCN1CCN(CCN2CCOCC2)CC1` [Compound 8-1q], for which the IC50 is 4.26 ± 0.31 µM in the test on J82 cells (Table 6); 6.25 ± 0.88 µM in the test with UM-UC-3 cells (Table 6); 6.83 ± 0.87 µM with T24 cells (Table 6); 5.78 ± 0.69 µM in the test with 5637 cells (Table 6); 4.57 ± 0.44 µM with 143B cells (Table 7); 5.81 ± 0.63 µM with MG-63 cells (Table 7). The IC50 worked out at 7.78 ± 0.53 µM in the test on BxPC-3 cells (Table 7); 19.5 ± 1.53 µM in the test on PANC-1 cells (Table 7); 6.32 ± 0.37 µM in the test on HeLa cells (Table 8); 6.64 ± 0.52 µM with MCF-7 cells (Table 8); 10.9 ± 0.67 µM in the test with A549 cells (Table 8); 7.09 ± 0.35 µM in the test on Hep G2 cells (Table 8). For the same compound, the IC50 was 8.76 ± 0.74 µM in the test with SK-OV-3 cells (Homo sapiens, SK-OV-3, Table 9); 7.61 ± 0.41 µM in [1] (Homo sapiens, SV-HUC1, Table 9, normal cells, co-incubated 48 h); 7.97 ± 0.63 µM in [2] (WI-38, Table 9, co-incubated 48 h).

With `COc1cc2ncnc(NCc3cccc(NC(=O)Nc4ccc(Cl)cc4Cl)c3)c2cc1OCCCCCCN1CCC(CN2CCN(c3ccccn3)CC2)CC1` [Compound 8-2r, N-(3-(((7-methoxy-6-((6-(4-((4-(pyridin-2-yl)piperazin-1-yl)methyl)piperidin-1-yl)hexyl)oxy)quinazolin-4-yl)amino)methyl)phenyl)-N′-(2,4-dichlorophenyl)urea], the IC50 came out at 4.73 ± 0.38 µM in the test on J82 cells (Table 10); 11.7 ± 0.96 µM in the test on UM-UC-3 cells (Table 10); 5.12 ± 0.39 µM in the test on T24 cells (Table 10); 6.29 ± 0.37 µM with 5637 cells (Table 10); 8.91 ± 0.77 µM in the test on 143B cells (Table 11); 7.02 ± 0.58 µM in the test with MG-63 cells (Table 11). For the same compound, the IC50 with BxPC-3 cells (Table 11) turned out to be 10.3 ± 0.93 µM; in the test with PANC-1 cells (Table 11) it was 14.6 ± 0.78 µM; in the test on HeLa cells (Table 12), 7.37 µM; with MCF-7 cells (Table 12) it was 11.4 ± 0.76 µM; with A549 cells (Table 13), 12.3 ± 0.92 µM; in the test on Hep G2 cells (Table 12), 7.02 ± 0.49 µM. Moreover, the figures for the IC50 (with SK-OV-3 cells (setting [3]); in test [1] (setting [4]); in test [2] (setting [5])) were 11.3 ± 0.83 µM, 8.41 ± 0.43 µM and 7.72 ± 0.39 µM, respectively.

In the case of `COc1ccccc1NC(=O)Nc1cccc(CNc2ncnc3cc(OC)c(OCCCCCCN4CCC(CN5CCN(c6ccccn6)CC5)CC4)cc23)c1` [Compound 8-2k, N-(3-(((7-methoxy-6-((6-(4-((4-(pyridin-2-yl)piperazin-1-yl)methyl)piperidin-1-yl)hexyl)oxy)quinazolin-4-yl)amino)methyl)phenyl)-N′-(2-methoxyphenyl)urea], the IC50 with J82 cells (Table 10) stood at 5.68 ± 0.42 µM; with UM-UC-3 cells (Table 10), 7.19 ± 0.52 µM; with T24 cells (Table 10), 5.34 ± 0.27 µM; in the test on 5637 cells (Table 10) it was 5.63 ± 0.38 µM; in the test with 143B cells (Table 11) it was 6.08 ± 0.37 µM; with MG-63 cells (Table 11) it was 6.38 ± 0.43 µM. For the same compound, the IC50 in the test on BxPC-3 cells (Table 11) was found to be 7.11 ± 0.79 µM; with PANC-1 cells (Table 11) it was 15.9 ± 0.94 µM; with HeLa cells (Table 12), 5.51 ± 0.49 µM; in the test with MCF-7 cells (Table 12), 6.68 ± 0.79 µM; in the test on A549 cells (Table 13) it was 14.2 ± 1.31 µM; in the test on Hep G2 cells (Table 12), 4.99 ± 0.47 µM. Also, the figures for the concentration for half-maximal inhibition (IC50) (in the test on SK-OV-3 cells (setting [3]); in test [1] (setting [4]); in test [2] (setting [5])) were 6.32 ± 0.56 µM, 13 ± 0.88 µM and 11.2 ± 0.65 µM, respectively.

For `[NH2][Pt]([NH2])([Cl])[Cl]` [CDDP, cisplatin, reference compound], the IC50 in the test with SK-OV-3 cells (Table 9) came out at 9.89 ± 0.97 µM; in test [1] (Table 9, normal cells, co-incubated 48 h), 10.3 ± 0.68 µM.

As to `CNC(=O)c1cc(Oc2ccc(NC(=O)Nc3ccc(Cl)c(C(F)(F)F)c3)c(F)c2)ccn1` [Reg, regorafenib, reference compound], the IC50 in test [1] (Homo sapiens, SV-HUC1, 48 h) is 11.4 ± 0.69 µM.

`Cc1cccc(NC(=O)Nc2cccc(CNc3ncnc4ccccc34)c2)c1` [Compound II-2, reference compound]: the IC50 with UM-UC-3 cells (setting [6]) was 22.8 ± 1.38 µM; with 143B cells (setting [6]), 13.2 ± 0.86 µM; with MG-63 cells (setting [6]), 19.3 ± 1.76 µM; in the test with BxPC-3 cells (setting [7]), 15.5 ± 1.71 µM; in the test with PANC-1 cells (setting [7]), above 30 µM; in the test on SK-OV-3 cells (Homo sapiens, SK-OV-3, Table 15, comparative compounds), 19.5 ± 1.37 µM.
